“And” between values parts separate entries of the source, which are not always exact repeats. Equal entries are not always repeated.
Legend:
Type in all cases: in vivo
Balb/c mice [1] = test: Immunological tolerance by intranasal HC gp-39, DTH assay (footpad swelling)
Protocol: (§1) Twenty eight μg of protein was administered intranasally (2×10 μl) to 10 female Balb/c mice (anesthetized lightly with Enflurance) using a PT45 micro conduit and a Hamilton syringe. Antigen was administered on day -15, -10 and -5 prior to arthritis induction. Controls (n=10) were submitted to the same procedure but received the vehicle (PBS) only (Table 5).
Immunological tolerance was evaluated by measuring delayed type hypersensitivity (DTH) response following sensitization as described above on day 0, using 10 μg of protein. Sensitization on day 0 was followed by an injection of 10 μg HC gp-39 in […] in the left hind footpad on day 8 (challenge). DTH reactions were measured as the increase in footpad ([swelling left (mm×10^-3)-swelling right (mm×10^-3)]/swelling right (mm×10^-3))×100%. The footpad swelling was measured using an in house designed μmeter at 0, 24 and 48 hr after challenge.

Balb/c mice [2] = test: Arthritogenicity of HC gp-39 in Balb/c mice; conditions: for arthritis signs: mild (number of animals) / arthritis signs: none (number of animals) / arthritis signs: severe (number of animals): n = 4; for arthritis signs: mild (number of animals): mild: score per animal does not exceed 2; for arthritis signs: none (number of animals): none: score = 0; for arthritis signs: severe (number of animals): severe: score per animal ≥3
Protocol: (§2) 10 or 50 μg of purified HC gp-39 in a 100 μl volume PPBS (0.5M NaCl, 0.01M sodium phosphate buffer, pH 7.5) mixed 1:1 in incomplete Freunds adjuvant (IFA) was injected subcutaneously in the chest region in 2×4 female Balb/c mice (Harlan CPB, Zeist, The Netherlands) whereas 4 controls were injected with PBS (1:1 in IFA). Mice were examined daily for clinical signs of arthritis. Severity of arthritis was assessed by scoring each paw from 0-3 (according to the article by Glant et al). In short, score 0=no changes, score 1=erythema and swelling, score 2=swelling and appearance of deformities, score 3=immobility due to loss of flexion and extension.

Balb/c mice [3] = test: Tolerance to arthritis induction or progression after intranasal HC gp-39; conditions: for arthritis signs: mild (number of animals): mild: score per animal does not exceed 2; for arthritis signs: severe (number of animals): severe: score per animal ≥4; for arthritis onset (day): first signs appear - highest number of animals affected: monitored to day 31
Protocol: as §2, §1
Tolerance to arthritis induction in these same mice was then further monitored until day 31 following sensitization and mice were examined daily for clinical signs. Severity of arthritis was assessed as mentioned above.

[4] = controls (n = 10): PBS intranasal, 10 μg HC gp-39 s.c. day 0, 10 μg footpad challenge day 8
[5] = tolerized (n = 9): 28 μg HC gp-39 intranasal day -15, -10, -5, 10 μg s.c. day 0, 10 μg footpad day 8
[6] = controls (n = 10), non-tolerized, 10 μg HC gp-39 s.c.
[7] = tolerized (n = 10): 28 μg HC gp-39 intranasal x3, then 10 μg s.c.

**Q.** Which “DTH response (in words)” value (Balb/c mice [1]; control (non-tolerized) mice injected with HC gp-39 at day 0) does the source give for “HC gp-39: Human Cartilage glycoprotein 39, purified from culture supernatant of MG63 human osteosarcoma cells; target autoantigen in RA” here?
**A.** The value was “strong, antigen-specific DTH response”.

**Q.** What about the “DTH, mean % swelling 0 hr” value (Balb/c mice [1]; [4]) of the same substance?
**A.** The value was -1.3%.

**Q.** And the “DTH, mean % swelling 24 hr” value (Balb/c mice [1]; [4])?
**A.** Its value is 31.4%.

**Q.** And the “DTH, mean % swelling 48 hr” value (Balb/c mice [1]; [4])?
**A.** Its value is 38.6%.

**Q.** What about the “arthritis ankle (animals affected, adjacent to site of challenge)” value (Balb/c mice [1]; [4]) of the same substance?
**A.** Its value is 4 out of 10 and 4/10 and four out of ten.

**Q.** And the “DTH, mean % swelling 0 hr” value (Balb/c mice [1]; [5])?
**A.** Its value is -0.05%.

**Q.** What about the “DTH, mean % swelling 24 hr” value (Balb/c mice [1]; [5]) of the same substance?
**A.** Its value is 3.7%.

**Q.** And the “DTH, mean % swelling 48 hr” value (Balb/c mice [1]; [5])?
**A.** The value was 1.5%.

**Q.** What about the “arthritis ankle (animals affected, adjacent to site of challenge)” value (Balb/c mice [1]; [5]) of the same substance?
**A.** The value was “did not develop an arthritis and 0/9 and fully protected”.

**Q.** And the “DTH responses upon challenge (in words)” value (Balb/c mice [1]; tolerized by intranasal administration of HC gp-39)?
**A.** The value was “completely abrogated”.

**Q.** And the “arthritis signs: mild (number of animals)” value (shortened to “arthritis signs: mild”) (Balb/c mice [2]; 10 μg s.c. in IFA)?
**A.** Its value is “One and 1”.

**Q.** And the “arthritis signs: none (number of animals)” value (from here on “arthritis signs: none”) (Balb/c mice [2]; 10 μg s.c. in IFA)?
**A.** The value was 0.

**Q.** What about the “arthritis signs: severe (number of animals)” value (from here on “arthritis signs: severe”) (Balb/c mice [2]; 10 μg s.c. in IFA) of the same substance?
**A.** The value was “Three out of 4 and 3”.

**Q.** What about the “arthritis signs: mild” value (Balb/c mice [2]; 50 μg s.c. in IFA) of the same substance?
**A.** Its value is 0.

**Q.** And the “arthritis signs: none” value (Balb/c mice [2]; 50 μg s.c. in IFA)?
**A.** Its value is 0.

**Q.** And the “arthritis signs: severe” value (Balb/c mice [2]; 50 μg s.c. in IFA)?
**A.** The value was “all mice and 4”.

**Q.** And the “arthritis onset (day) FP (fore paw), per animal” value (Balb/c mice [2]; 50 μg s.c. in IFA, n = 4 Balb/c mice)?
**A.** The value was 15 to 20 days.

**Q.** What about the “frequency of symmetrical distribution of afflicted joints” value (Balb/c mice [2]; 50 μg s.c. in IFA, followed for 62 days) of the same substance?
**A.** The value was > 50%.

**Q.** And the “arthritis signs: mild” value (Balb/c mice [3]; [6])?
**A.** Its value is “three and 3”.

**Q.** What about the “arthritis signs: none” value (Balb/c mice [3]; controls (n = 10), non-tolerized, 10 μg HC gp-39 s.c., no signs: score 0) of the same substance?
**A.** Its value is 0.

**Q.** And the “arthritis signs: severe” value (Balb/c mice [3]; [6])?
**A.** The value was “Seven and 7”.

**Q.** What about the “arthritis onset (day): first signs appear - highest number of animals affected” value (Balb/c mice [3]; controls (n = 10), non-tolerized, sensitized with 10 μg HC gp-39 s.c.) of the same substance?
**A.** The value was 13 to 16 days.

**Q.** And the “arthritis onset (day): first signs appear - highest number of animals affected” value (Balb/c mice [3]; tolerized (n = 10): 28 μg HC gp-39 intranasal day -15, -10, -5, then 10 μg s.c.)?
**A.** Its value is 23 to 24 days.

**Q.** What about the “arthritis signs: mild” value (Balb/c mice [3]; [7]) of the same substance?
**A.** The value was “two and 2”.

**Q.** And the “arthritis signs: severe” value (Balb/c mice [3]; [7])?
**A.** Its value is “Three and 3”.

**Q.** And the “delay of arthritis onset in tolerized animals, hind and fore paws respectively” value (Balb/c mice [3]; tolerized vs non-tolerized, FIG. 1)?
**A.** Its value is 7 to 9 days.
